Measurements as given in article PMC7893202 (Acta Pharmaceutica Sinica. B, 2020).

Target: T1, estrogen receptor-alpha (ERα) (Homo sapiens, UniProt P03372)
T1 sequence (P03372 311-547 limits assumed): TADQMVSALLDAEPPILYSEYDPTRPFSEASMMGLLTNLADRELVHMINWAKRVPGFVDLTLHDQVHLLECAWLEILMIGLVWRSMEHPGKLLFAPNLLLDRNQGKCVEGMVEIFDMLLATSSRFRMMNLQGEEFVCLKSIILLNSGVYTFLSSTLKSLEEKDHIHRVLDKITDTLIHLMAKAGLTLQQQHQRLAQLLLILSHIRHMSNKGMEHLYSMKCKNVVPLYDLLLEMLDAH
Test: fluorescence titration
Assay type: binding

Kd: 10 nM
SMILES: Cc1cc(O)cc2oc3cc(O)cc(O)c3c(=O)c12 [compound 1, norlichexanthone]
